Experimental data as given in PubChem BioAssay (NCI).
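Five concentrations, 48 hours, 96-well plates. GI50 = concentration required for 50% inhibition of growth. TGI marks complete inhibition of growth.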

How the values were obtained:
Assay in all cases: growth of human tumour cells (NCI), 48 h
[1] = test system: NCI-H23 lung
[2] = test system: A498 renal
[3] = test system: SK-MEL-5 melanoma
[4] = test system: MOLT-4 leukemia
[5] = test system: 786-0 renal
[6] = test system: SNB-75 CNS
[7] = test system: RPMI-8226 leukemia
[8] = test system: UACC-62 melanoma
[9] = test system: PC-3 prostate
[10] = test system: SF-539 CNS
[11] = test system: MALME-3M melanoma
[12] = test system: NCI-H522 lung
[13] = test system: COLO 205 colon
[14] = test system: RXF 393 renal
[15] = test system: KM12 colon
[16] = test system: SNB-19 CNS
[17] = test system: CAKI-1 renal
[18] = test system: NCI/ADR-RES ovarian
[19] = test system: MCF7 breast
[20] = test system: HCT-15 colon
[21] = test system: SR leukemia
[22] = test system: U251 CNS
[23] = test system: M14 melanoma
[24] = test system: LOX IMVI melanoma
[25] = test system: NCI-H460 lung
[26] = test system: NCI-H226 lung
[27] = test system: HS 578T breast
[28] = test system: BT-549 breast
[29] = test system: HCC-2998 colon
[30] = test system: A549 NSCLC
[31] = test system: T-47D breast
[32] = test system: SF-268 CNS
[33] = test system: OVCAR-5 ovarian
[34] = test system: SK-MEL-28 melanoma
[35] = test system: K-562 leukemia
[36] = test system: HT29 colon
[37] = test system: HOP-92 NSCLC
[38] = test system: CCRF-CEM leukemia
[39] = test system: SF-295 CNS
[40] = test system: SN12C renal
[41] = test system: OVCAR-8 ovarian
[42] = test system: SK-MEL-2 melanoma
[43] = test system: UACC-257 melanoma
[44] = test system: DU-145 prostate
[45] = test system: MDA-MB-435
[46] = test system: HCT-116 colon
[47] = test system: SW-620 colon
[48] = test system: UO-31 renal
[49] = test system: OVCAR-3 ovarian
[50] = test system: OVCAR-4 ovarian
[51] = test system: IGROV1 ovarian
[52] = test system: HOP-62 NSCLC
[53] = test system: ACHN renal
[54] = test system: EKVX NSCLC
[55] = test system: SK-OV-3 ovarian
[56] = test system: MDA-MB-231 breast
[57] = test system: HL-60(TB) leukemia

## O=C(Nc1ccc(OC(F)(F)Cl)cc1)c1cnc(N2CC[C@@H](O)C2)c(-c2ccn[nH]2)c1
[1]
  GI50: 13.6 µM
  TGI: 33.5 µM
[2]
  GI50: 14.8 µM
  TGI: 31.2 µM
[3]
  GI50: 10.7 µM
  TGI: 22.7 µM
[4]
  GI50: 9.23 µM
  TGI: 31.7 µM
[5]
  GI50: 15 µM
  TGI: 32.8 µM
[6]
  GI50: 12.7 µM
  TGI: 26.5 µM
[7]
  GI50: 9.44 µM
  TGI: 39.9 µM
[8]
  GI50: 5.07 µM
  TGI: 19.5 µM
[9]
  GI50: 16.3 µM
  TGI: 48.4 µM
[10]
  GI50: 13.6 µM
  TGI: 29.1 µM
[11]
  GI50: 12.5 µM
  TGI: 26 µM
[12]
  GI50: 12.6 µM
  TGI: 31.6 µM
[13]
  GI50: 5.58 µM
  TGI: 19.7 µM
[14]
  GI50: 15.8 µM
  TGI: 35.6 µM
[15]
  GI50: 9.26 µM
  TGI: 24.2 µM
[16]
  GI50: 12.9 µM
  TGI: 28.2 µM
[17]
  GI50: 19.4 µM
  TGI: 63 µM
[18]
  GI50: 24.9 µM
  TGI: 79.6 µM
[19]
  GI50: 10 µM
  TGI: 32.8 µM
[20]
  GI50: 7.61 µM
  TGI: 24.2 µM
[21]
  GI50: 10.8 µM
  TGI: 50.9 µM
[22]
  GI50: 11.8 µM
  TGI: 26.6 µM
[23]
  GI50: 4.52 µM
  TGI: 18.3 µM
[24]
  GI50: 4.84 µM
  TGI: 18.7 µM
[25]
  GI50: 10.1 µM
  TGI: 25.4 µM
[26]
  GI50: 11.8 µM
  TGI: 30 µM
[27]
  GI50: 17.6 µM
  TGI: 49.3 µM
[28]
  GI50: 10.6 µM
  TGI: 24.7 µM
[29]
  GI50: 8.41 µM
  TGI: 22.2 µM
[30]
  GI50: 10.5 µM
  TGI: 33.6 µM
[31]
  GI50: 6.12 µM
  TGI: 46.7 µM
[32]
  GI50: 15.4 µM
  TGI: 39.2 µM
[33]
  GI50: 12.9 µM
  TGI: 34.2 µM
[34]
  GI50: 11.8 µM
  TGI: 24.9 µM
[35]
  TGI: 11 µM
[36]
  GI50: 3.12 µM
  TGI: 12.1 µM
[37]
  GI50: 17.3 µM
  TGI: 41.3 µM
[38]
  GI50: 11.3 µM
  TGI: 43.2 µM
[39]
  GI50: 10.6 µM
  TGI: 26 µM
[40]
  GI50: 12.6 µM
  TGI: 28.9 µM
[41]
  GI50: 10.8 µM
  TGI: 54.6 µM
[42]
  GI50: 12.9 µM
  TGI: 29.5 µM
[43]
  GI50: 10.5 µM
  TGI: 22.6 µM
[44]
  GI50: 13.2 µM
  TGI: 43.3 µM
[45]
  GI50: 7.3 µM
  TGI: 21.7 µM
[46]
  GI50: 10.8 µM
  TGI: 23.9 µM
[47]
  GI50: 5.84 µM
  TGI: 20.5 µM
[48]
  GI50: 11.9 µM
  TGI: 31 µM
[49]
  GI50: 15 µM
  TGI: 41.4 µM
[50]
  GI50: 7.07 µM
  TGI: 43.5 µM
[51]
  GI50: 15.2 µM
  TGI: 41.1 µM
[52]
  GI50: 11.4 µM
  TGI: 28.4 µM
[53]
  GI50: 5.03 µM
  TGI: 28.3 µM
[54]
  GI50: 8.63 µM
  TGI: 28.7 µM
[55]
  GI50: 20.5 µM
  TGI: 44.9 µM
[56]
  GI50: 4.73 µM
  TGI: 21.5 µM
[57]
  GI50: 22.3 µM
  TGI: 54 µM
